From patent US20210355138A1, “AMINOTHIAZINIES AND THEIR USE AS BACE1 INHIBITORS” (Eli Lilly and Company, priority 2016, published 2021)
Like-named read-outs stand apart in the source and are kept apart here.

How the values were obtained:
Human BACE1(1-460):Fc = molecular target: T1, Human BACE1(1-460):Fc (Homo sapiens, UniProt P56817); assay: BACE1 FRET Assay; type: biochemical; details: purified recombinant huBACE1:Fc, FRET substrate based on APP sequence, pH 4.6; mean ± standard deviation of the mean (0.035), n=5
T1 construct: made in house; host or cells: HEK293 (transient transfection, conditioned medium)
Experimental: (§1) To assess selectivity of BACE1 over BACE2, the test compound is evaluated in FRET assays using specific substrates for BACE1 and BACE2 as described below. For in vitro enzymatic and cellular assays, the test compound is prepared in DMSO to make up a 10 mM stock solution. The stock solution is serially diluted in DMSO to obtain a ten-point dilution curve with final compound concentrations ranging from 10 μM to 0.05 nM in a 96-well round-bottom plate before conducting the in vitro enzymatic and whole cell assays.
Human BACE1 (accession number: AF190725) and human BACE2 (accession number: AF 204944) are cloned from total brain cDNA by RT-PCR. The nucleotide sequences corresponding to amino acid sequences #1 to 460 are inserted into the cDNA encoding human IgG1 (Fc) polypeptide (Vassar et al., Science, 286, 735-742 (1999)). […]
Conditioned media of HEK293 cells transiently transfected with huBACE1:Fc or huBACE2:Fc cDNA are collected. […] The purity of the final product is assessed by electrophoresis in 4-20% Tris-Glycine SDS-PAGE. […]
Serial dilutions of the test compound are prepared as described above. […] The RFU of the mixture at time 0 is recorded at excitation wavelength 355 nm and emission wavelength 460 nm, after brief mixing on a plate shaker. […] The RFU at the end of incubation is recorded with the same excitation and emission settings used at time 0. […]

BACE1 = molecular target: T2, BACE1 (Homo sapiens, UniProt P56817); assay: SH-SY5YAPP695Wt Whole Cell Assay (Abeta ELISA); type: cell-based; details: SH-SY5Y cells stably expressing human APP695Wt, 24 hours incubation, n=6
T2 construct: endogenous in cells; host or cells: SH-SY5Y (ATCC CRL2266) stably expressing human APP695Wt
Experimental: as §1
The routine whole cell assay for the measurement of inhibition of BACE1 activity utilizes the human neuroblastoma cell line SH-SY5Y (ATCC Accession No. CRL2266) stably expressing a human APP695Wt cDNA. Cells are routinely used up to passage number 6 and then discarded.
SH-SY5YAPP695Wt cells are plated in 96 well tissue culture plates at 5.0×10^4 cells/well in 200 μL culture media (50% MEM/EBSS and Ham's F12, 1× each sodium pyruvate, non-essential amino acids and NaHCO3 containing 10% FBS). The following day, media is removed from the cells, fresh media added then incubated at 37° C. for 24 hours in the presence/absence of test compound at the desired concentration range.
At the end of the incubation, conditioned media are analyzed for evidence of beta-secretase activity by analysis of Abeta peptides 1-40 and 1-42 by specific sandwich ELISAs. […]

T2 sequence (P56817 46-501): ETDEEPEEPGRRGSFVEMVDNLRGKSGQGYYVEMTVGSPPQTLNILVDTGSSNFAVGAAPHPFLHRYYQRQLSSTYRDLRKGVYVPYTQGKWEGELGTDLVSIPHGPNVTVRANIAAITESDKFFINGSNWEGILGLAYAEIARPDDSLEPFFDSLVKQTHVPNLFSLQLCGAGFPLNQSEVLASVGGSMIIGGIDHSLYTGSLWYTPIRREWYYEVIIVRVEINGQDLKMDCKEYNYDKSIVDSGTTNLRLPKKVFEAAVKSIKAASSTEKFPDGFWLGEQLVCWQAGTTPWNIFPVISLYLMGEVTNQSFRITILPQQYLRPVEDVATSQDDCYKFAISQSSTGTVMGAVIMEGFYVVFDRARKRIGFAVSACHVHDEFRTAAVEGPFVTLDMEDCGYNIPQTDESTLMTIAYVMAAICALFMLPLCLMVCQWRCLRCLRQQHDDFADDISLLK
T1 sequence (P56817 22-460): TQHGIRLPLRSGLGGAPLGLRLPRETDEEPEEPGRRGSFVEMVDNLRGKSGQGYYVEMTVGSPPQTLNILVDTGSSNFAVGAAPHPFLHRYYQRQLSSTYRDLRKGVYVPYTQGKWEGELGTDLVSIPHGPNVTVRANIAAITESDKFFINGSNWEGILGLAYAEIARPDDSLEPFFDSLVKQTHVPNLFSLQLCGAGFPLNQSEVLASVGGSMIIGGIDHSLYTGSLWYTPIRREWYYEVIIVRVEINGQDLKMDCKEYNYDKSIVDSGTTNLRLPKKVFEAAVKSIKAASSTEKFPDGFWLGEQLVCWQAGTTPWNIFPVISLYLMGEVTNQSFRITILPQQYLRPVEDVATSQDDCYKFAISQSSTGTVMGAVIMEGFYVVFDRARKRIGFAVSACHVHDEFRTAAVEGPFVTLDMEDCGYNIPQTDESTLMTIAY

IC50 (Human BACE1(1-460):Fc): 0.263 nM
IC50 (BACE1; Abeta 1-40 in conditioned media, mean ± standard deviation of the mean (0.0104), read-out: IC50 for SH-SY5YAPP695Wt A-beta (1-40) ELISA): 0.026 nM
IC50 (BACE1; Abeta 1-42 in conditioned media, mean ± standard deviation of the mean (0.0187), read-out: IC50 for SH-SY5YAPP695Wt A-beta (1-42) ELISA): 0.0313 nM
SMILES: CC(F)(F)[C@H]1C[C@H]2CSC(N)=N[C@@]2(c2cc(NC(=O)c3ccc(C#N)cn3)ccc2F)CO1 [Example 1, N-[3-[(4aR,6R,8aS)-2-Amino-6-(1,1-difluoroethyl)-4a,5,6,8-tetrahydro-4H-pyrano[3,4-d][1,3]thiazin-8a-yl]-4-fluoro-phenyl]-5-cyano-pyridine-2-carboxamide]
